Data from patent US20150352142A1, “STABILIZED COMPOSITIONS COMPRISING HYALURONIC ACID” (Carbylan Therapeutics, Inc., priority 2013, published 2015).

Columns and labels:
Type in all cases: physicochemical
[1] = Effect of sucrose on HA (730) viscosity at 55° C. (Example 11); conditions: HA (730 KDa) solution
Protocol: 4.7 g of HA (Lifecore, 730 KDa) was dissolved in 600 mL of 0.9% NaCl overnight. The dissolved HA was sterile filtered with 0.2 um filter (Millipore, Opticap 4″). 0.86 mL of 1 M Sodium Phosphate, pH 6.71 was added to 171.8 mL of the HA solution. Then 248.2 mg of USP grade Triamcinolone acetonide (TA) was mixed with 148.9 mL of dissolved HA in a sterile 250 mL Nalgene bottle. […] Each mixture was mixed for 1 hour. No additives were added to the control sample. For each large sample, 2±0.2 mL aliquots were placed in a sterile 4 mL glass vial which was then sealed with septum and aluminum cap. All these aliquoted samples, except the 0 hour samples, were placed in an oven set at 55° C. With the exception of the 0 hour samples, at each time point (Day 1, Day 3 and Day 7), 3 of the samples were removed from the oven and allowed to cool to room temperature. The viscosity of each sample was measured using AR550 Rheometer (TA Instrument) with 40 mm 2° steel cone at 22° C. with a 3 min time sweep. The percent retention of the HA viscosity was determined by the ratio of the viscosity (average of the 3 samples) on the specified day to that on Day 0.

[2] = Effect of sucrose on HA (880) viscosity at 55° C. (Example 10); conditions: HA (880 KDa) solution
Protocol: 4.7 g of HA (Lifecore, 880 KDa) was dissolved in 600 mL of 0.9% NaCl overnight. The dissolved HA was sterile filtered with 0.2 um filter (Millipore, Opticap 4″). 0.84 mL of 1 M Sodium Phosphate, pH 6.71 was added to 167.51 mL of the filtered HA solution. Then 248.4 mg of USP grade Triamcinolone acetonide (TA) was mixed with 144.2 mL of dissolved HA in a sterile 250 mL Nalgene bottle. […] Each mixture was mixed for 1 hour. No additives were added to the control sample. For each large sample, 2±0.2 mL aliquots were placed in a sterile 4 mL glass vial which was then sealed with septum and aluminum cap. All these aliquoted samples, except the 0 hour samples, were placed in an oven set at 55° C. With the exception of the 0 hour samples, at each time point (Day 1, Day 3 and Day 7), 3 of the samples were removed from the oven and allowed to cool to room temperature. The viscosity of each sample was measured using AR550 Rheometer (TA Instrument) with 40 mm 2° steel cone at 22° C. with a 3 min time sweep. The percent retention of the HA viscosity was determined by the ratio of the viscosity (average of the 3 samples) on the specified day to that on Day 0.

[3] = Effect of additives on HA viscosity at 60° C., HA/TA (Example 16); conditions: HA solution
Protocol: Then 344.3 mg of USP grade Triamcinolone Acetonide (TA) was mixed with 206.6 mL of dissolved HA in a sterile 250 mL Nalgene bottle. […] No additives were added to the control sample. For each large sample, 2±0.2 mL aliquots were placed in a sterile 4 mL glass vial which was then sealed with septum and aluminum cap. All these aliquoted samples, except the 0 hour samples, were placed in an oven set at 60° C. With the exception of the Day 0 samples, at each time point (Day 1, Day 3 and Day 7), 3 of the samples were removed from the oven and allowed to cool to room temperature. […] The percent retention of the HA viscosity was determined by the ratio of the viscosity (average of the 3 samples) on the specified day to that on Day 0.

[4] = Effect of sucrose on HA viscosity at 55° C. (Example 3); conditions: HA solution
Protocol: 6.9 g of HA (Lifecore, 888 KDa) was dissolved in 881 mL of 0.9% NaCl overnight. The dissolved HA was sterile filtered with 0.2 um filter (Millipore, Opticap 4″). 3.97 mL of 1 M Sodium Phosphate, pH 6.71 was added to the HA solution. Then 135.3 mg of USP grade Triamcinolone acetonide (TA) was mixed with 81.2 mL of dissolved HA in a sterile 250 mL Nalgene bottle. […] Each mixture was mixed for 1 hour. No additives were added to the control sample. For each large sample, 2±0.2 mL aliquots were placed in a sterile 4 mL glass vial which was then sealed with septum and aluminum cap. All these aliquoted samples, except the 0 hour samples, were placed in an oven set at 55° C. With the exception of the Day 0 samples, at each time point, 3 of the samples were removed from the oven and allowed to cool to room temperature. The viscosity of each sample was measured using AR550 Rheometer (TA Instrument) with 40 mm 2° steel cone at 22° C. with a 3 min time sweep. The percent retention of the HA viscosity was determined by the ratio of the viscosity (average of the 3 samples) on the specified day to that on Day 0. The stabilization ratio at Day 6 is the ratio of the percent retention of HA viscosity with the specific additive to the percent retention of HA viscosity of the sample with no additive.

[5] = Effect of additives on HA viscosity at 60° C., HA/TA (Example 17); conditions: HA solution
Protocol: 3.92 g of HA (Shiseido, IV=2 m^3/kg) was dissolved in 500 mL of 0.9% NaCl overnight. The dissolved HA was sterile filtered with 0.2 um filter (Millipore, Opticap 4″). 2.16 mL of 1 M Sodium Phosphate, pH 6.71 was added to the HA solution. Then 344.3 mg of USP grade Triamcinolone Acetonide (TA) was mixed with 206.6 mL of dissolved HA in a sterile 250 mL Nalgene bottle. […] No additives were added to the control sample. For each large sample, 2±0.2 mL aliquots were placed in a sterile 4 mL glass vial which was then sealed with septum and aluminum cap. All these aliquoted samples, except the 0 hour samples, were placed in an oven set at 60° C. With the exception of the Day 0 samples, at each time point (Day 1, Day 3 and Day 6), 3 of the samples were removed from the oven and allowed to cool to room temperature. The viscosity of each sample was measured using AR550 Rheometer (TA Instrument) with 40 mm 2° steel cone at 22° C. with a 3 min time sweep. The percent retention of the HA viscosity was determined by the ratio of the viscosity (average of the 3 samples) on the specified day to that on Day 0. The stabilization ratio at Day 6 is the ratio of the percent retention of HA viscosity with the specific additive to the percent retention of HA viscosity of the sample with no additive.

[6] = Effect of sucrose on HA viscosity at 60° C. (Example 2); conditions: HA solution
Protocol: 6.9 g of HA (Lifecore, 888 KDa) was dissolved in 881 mL of 0.9% NaCl overnight. The dissolved HA was sterile filtered with 0.2 μm filter (Millipore, Opticap 4″). 3.97 mL of 1 M Sodium Phosphate, pH 6.71 was added to the HA solution. Then 372 mg of USP grade triamcinolone acetonide (TA) was mixed with 223.2 mL of dissolved HA in a sterile 250 mL Nalgene bottle. […] Each mixture was mixed for 1 hour. No additives were added to the control sample. For each large sample, 2±0.2 mL aliquots were placed in a sterile 4 mL glass vial which was then sealed with septum and aluminum cap. All these aliquoted samples, except the 0 hour samples, were placed in an oven set at 60° C. With the exception of the Day 0 samples, at each time point, 3 of the samples were removed from the oven and allowed to cool to room temperature. The viscosity of each sample was measured using AR550 Rheometer (TA Instrument) with 40 mm 2° steel cone at 22° C. with a 3 min time sweep. The percent retention of the HA viscosity was determined by the ratio of the viscosity (average of the 3 samples) on the specified day to that on Day 0. The stabilization ratio at Day 6 is the ratio of the percent retention of HA viscosity with the specific additive to the percent retention of HA viscosity of the sample with no additive.

[7] = Effect of sucrose on HA viscosity at 80° C. (Example 1B); conditions: HA solution
Protocol: 6.9 g of hyaluronic acid, HA (Lifecore, 888 KDa) was dissolved in 881 mL of 0.9% NaCl overnight. The dissolved HA was sterile filtered with 0.2 μm filter (Millipore, Opticap 4″). 3.97 mL of 1 M sodium phosphate, pH 6.71 was added to the HA solution. Then 372 mg of USP grade triamcinolone acetonide (TA) was mixed with 223.2 mL of dissolved HA in a sterile 250 mL Nalgene bottle. […] Each mixture was mixed for 1 hour. No additives were added to the control sample. For each large sample, 2±0.2 mL aliquots were placed in a sterile 4 mL glass vial which was then sealed with septum and aluminum cap. All these aliquoted samples, except the 0 hour samples, were placed in an oven set at 80° C. With the exception of the 0 hour samples, at each time point, 3 of the samples were removed from the oven and allowed to cool to room temperature. The viscosity of each sample was measured using AR550 Rheometer (TA Instrument) with 40 mm 2° steel cone at 22° C. with a 3 min time sweep. The percent retention of the HA viscosity was determined by the ratio of the viscosity (average of the 3 samples) on the specified day to that on 0 hour. The stabilization ratio at 30 hours is the ratio of the percent retention of HA viscosity with the specific additive to the percent retention of HA viscosity of the sample with no additive.

[8] = Effect of sucrose on HA viscosity at 40° C. (Example 4); conditions: HA solution
Protocol: 6.9 g of HA (Lifecore, 888 KDa) was dissolved in 881 mL of 0.9% NaCl overnight. The dissolved HA was sterile filtered with 0.2 μm filter (Millipore, Opticap 4″). 3.97 mL of 1 M sodium phosphate, pH 6.71 was added to the HA solution. Then 372 mg of USP grade triamcinolone acetonide (TA) was mixed with 223.2 mL of dissolved HA in a sterile 250 mL Nalgene bottle. […] Each mixture was mixed for 1 hour. No additives were added to the control sample. For each large sample, 2±0.2 mL aliquots were placed in a sterile 4 mL glass vial which was then sealed with septum and aluminum cap. All these aliquoted samples, except the Week 0 samples, were placed in an oven set at 40° C. With the exception of the Day 0 samples, at each time point, 3 of the samples were removed from the oven and allowed to cool to room temperature. The viscosity of each sample was measured using AR550 Rheometer (TA Instrument) with 40 mm 2° steel cone at 22° C. with a 3 min time sweep. The percent retention of the HA viscosity was determined by the ratio of the viscosity (average of the 3 samples) on the specified day to that on Week 0. The stabilization ratio at Week 6 is the ratio of the percent retention of HA viscosity with the specific additive to the percent retention of HA viscosity of the sample with no additive.

[9] = Specific viscosity retention of crosslinked HA hydrogel/HA solution formulation with and without TA, stored at 25° C. (Example 1A)
[10] = Effect of additives on HA viscosity at 60° C., HA/triamcinolone hexacetonide (Example 18); conditions: HA solution
Protocol: 19.6 g of HA (Shiseido, IV=2 m^3/kg) was dissolved in 2.5 L of 0.9% NaCl overnight. The dissolved HA was sterile filtered with 0.2 um filter (Millipore, Opticap 4″). 1.15 mL of 1 M Sodium Phosphate, pH 6.71 was added to 228.9 mL of the HA solution. Then 334.9 mg of USP grade Triamcinolone hexacetonide(TH) was mixed with 200.95 mL of dissolved HA in a sterile 250 mL Nalgene bottle. […] Each mixture was mixed for 1 hour. No additives were added to the control sample. For each large sample, 2±0.2 mL aliquots were placed in a sterile 4 mL glass vial which was then sealed with septum and aluminum cap. All these aliquoted samples, except the Day 0 samples, were placed in an oven set at 60° C. With the exception of the Day 0 samples, at each time point, 3 of the samples were removed from the oven and allowed to cool to room temperature. The viscosity of each sample was measured using AR550 Rheometer (TA Instrument) with 40 mm 2° steel cone at 22° C. with a 3 min time sweep. The percent retention of the HA viscosity was determined by the ratio of the viscosity (average of the 3 samples) on the specified day to that on Day 0. The stabilization ratio at Day 6 is the ratio of the percent retention of HA viscosity with the specific additive to the percent retention of HA viscosity of the sample with no additive.

| Compound | effect of presence of corticosteroid on HA viscosity vs HA without it (in words) [1] | effect of presence of corticosteroid on HA viscosity vs HA without it (in words) [2] | effect of presence of corticosteroid on HA viscosity vs HA without it (in words) [3] | effect of presence of corticosteroid on HA viscosity vs HA without it (in words) [4] | effect of presence of corticosteroid on HA viscosity vs HA without it (in words) [5] | effect of presence of corticosteroid on HA viscosity vs HA without it (in words) [6] | effect of presence of corticosteroid on HA viscosity vs HA without it (in words) [7] | effect of presence of corticosteroid on HA viscosity vs HA without it (in words) [8] | effect of presence of corticosteroid on HA viscosity vs same formulation without it (in words) [9] | effect of presence of corticosteroid on HA viscosity vs HA without it (in words) [10] |
| --- | --- | --- | --- | --- | --- | --- | --- | --- | --- | --- |
| CC1(C)O[C@@H]2C[C@H]3[C@@H]4CCC5=CC(=O)C=C[C@]5(C)[C@@]4(F)[C@@H](O)C[C@]3(C)[C@]2(C(=O)CO)O1 [TA, triamcinolone acetonide] | increased decrease in the viscosity of the HA | increased decrease in the viscosity of the HA | increased degradation of the HA | increased degradation of the HA | increased degradation of the HA | increased degradation of the HA | increased degradation of the HA | increased degradation of the HA | decreased more rapidly over time |  |
| CC(C)(C)CC(=O)OCC(=O)[C@@]12OC(C)(C)O[C@@H]1C[C@H]1[C@@H]3CCC4=CC(=O)C=C[C@]4(C)[C@@]3(F)[C@@H](O)C[C@@]12C [triamcinolone hexacetonide, Triamcinolone hexacetonide] |  |  |  |  |  |  |  |  |  | decrease in the viscosity of the HA |
